“And” between values parts separate entries of the source, which are not always exact repeats. Identical values can stand only once.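 Method: 48-hour compound exposure of cells in 96-well plates, five concentrations, linear interpolation of endpoints. At the GI50, growth is halved. Definition used: TGI = concentration required for complete inhibition of growth.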
Columns and labels:
Experiment in all cases: NCI anticancer screen, dose series, 48 h
[1] = system: HCC-2998 colon
[2] = system: NCI-H226 lung
[3] = system: NCI-H460 lung
[4] = system: NCI/ADR-RES ovarian
[5] = system: OVCAR-4 ovarian
[6] = system: PC-3 prostate
[7] = system: RXF 393 renal
[8] = system: SK-MEL-5 melanoma
[9] = system: SK-OV-3 ovarian
[10] = system: SNB-19 CNS
[11] = system: UO-31 renal

CC[C@H](C)C1=C(OC(C)=O)[N@+]2([O-])Oc3ccc(-c4c(OC(C)=O)c(OC(C)=O)c(-c5ccc(OC(C)=O)cc5)c(OC(C)=O)c4OC(C)=O)cc3O[C@]2([C@@H](C)CC)C(=O)N1OC(C)=O
TGI [1]: 0.031 µM
TGI [2]: > 50 µM
TGI [3]: > 50 µM
TGI [4]: > 50 µM
TGI [5]: 39.6 µM
TGI [6]: 30 µM
TGI [7]: > 50 µM
TGI [8]: 22.5 µM
TGI [9]: 49.4 µM
TGI [10]: > 50 µM
TGI [11]: > 50 µM

CC(=O)C1(O)Cc2c(O)c3c(c(O)c2C(OC2CC(N)C(O)C(C)O2)C1)C(=O)c1ccccc1C3=O (centres undefined)
GI50 [1]: 0.0198 µM
TGI [1]: 0.257 µM and 0.0758 µM
GI50 [2]: < 0.0113 µM
TGI [2]: 0.139 µM and 0.0538 µM
TGI [3]: 0.0836 µM and 0.0123 µM
TGI [4]: 4.88 µM
GI50 [5]: 0.0663 µM
TGI [5]: 0.996 µM
GI50 [6]: 0.0437 µM
TGI [6]: 0.741 µM
GI50 [7]: 0.15 µM and 0.0166 µM
TGI [7]: 0.553 µM and 0.0785 µM
GI50 [8]: < 0.0119 µM
TGI [8]: 0.33 µM and 0.0697 µM
GI50 [9]: < 0.0129 µM
TGI [9]: 0.788 µM and 0.129 µM
GI50 [10]: < 0.0122 µM
TGI [10]: 0.97 µM and 0.156 µM
GI50 [11]: < 0.0127 µM
TGI [11]: 0.204 µM and < 0.0304 µM

CN(C)CCNc1nc2c(no[n+]2[O-])c2ccccc12
TGI [1]: 59.2 µM
TGI [2]: 54.9 µM
TGI [3]: > 100 µM
TGI [4]: 58.7 µM
TGI [5]: 61.1 µM
TGI [6]: 89.5 µM
TGI [7]: 38.6 µM
TGI [8]: 28.4 µM
TGI [9]: 98.8 µM
TGI [10]: 79 µM
TGI [11]: 49.1 µM

COc1ccccc1N=C1SCCN1C(=S)Nc1ccc(S(=O)(=O)/N=C/N(C)C)cc1
TGI [1]: > 100 µM
TGI [2]: > 100 µM
TGI [3]: > 100 µM
TGI [4]: > 100 µM
TGI [5]: > 100 µM
TGI [6]: > 100 µM
TGI [7]: 45.8 µM
TGI [8]: 37 µM
TGI [9]: > 100 µM
TGI [10]: > 100 µM
TGI [11]: > 100 µM

CC1(C)c2ccccc2C(O)C12CCC(=O)CC2 (centres undefined)
TGI [1]: > 100 µM
TGI [2]: > 100 µM
TGI [3]: > 100 µM
TGI [4]: > 100 µM
TGI [5]: > 100 µM
TGI [6]: > 100 µM
TGI [7]: 30.8 µM
TGI [8]: > 100 µM
TGI [9]: > 100 µM
TGI [10]: > 100 µM
TGI [11]: > 100 µM

C=CC1(c2ccc(OC)cc2)OCCCO1
TGI [1]: > 100 µM
TGI [2]: > 100 µM
TGI [3]: > 100 µM
TGI [4]: > 100 µM
TGI [5]: > 100 µM
TGI [6]: > 100 µM
TGI [7]: > 100 µM
TGI [8]: > 100 µM
TGI [9]: > 100 µM
TGI [10]: > 100 µM
TGI [11]: > 100 µM

O=C1c2cc([N+](=O)[O-])sc2C(=O)c2ccsc21
TGI [1]: 1.7 µM
TGI [2]: 3.09 µM
TGI [3]: 0.853 µM
TGI [4]: 2.78 µM
TGI [5]: 0.947 µM
TGI [6]: 1.8 µM
TGI [7]: 1.05 µM
TGI [8]: 0.336 µM
TGI [9]: 2.95 µM
TGI [10]: 3.33 µM
TGI [11]: 2.59 µM

CN(C)CCn1nc(N)c2nc3cc(C(F)(F)F)ccc3nc21
TGI [1]: > 100 µM
TGI [2]: > 100 µM
TGI [3]: > 100 µM
TGI [4]: > 100 µM
TGI [5]: > 100 µM
TGI [6]: > 100 µM
TGI [7]: > 100 µM
TGI [8]: > 100 µM
TGI [9]: > 100 µM
TGI [10]: > 100 µM
TGI [11]: > 100 µM

CCOP(=O)(OCC)C(C)(C)OC(=O)NC#N
TGI [1]: > 100 µM
TGI [2]: > 100 µM
TGI [3]: > 100 µM
TGI [4]: > 100 µM
TGI [5]: > 100 µM
TGI [6]: > 100 µM
TGI [7]: > 100 µM
TGI [8]: > 100 µM
TGI [9]: > 100 µM
TGI [10]: > 100 µM
TGI [11]: > 100 µM

C=C1c2nc3ccccc3n2C=C(c2ccc(OC)cc2)N1c1ccc(OCCN2CCOCC2)cc1
TGI [1]: > 100 µM
TGI [2]: > 100 µM
TGI [3]: > 49.9 µM
TGI [4]: > 100 µM
TGI [5]: > 100 µM
TGI [6]: > 100 µM
TGI [7]: > 100 µM
TGI [8]: > 100 µM
TGI [9]: > 100 µM
TGI [10]: > 100 µM
TGI [11]: > 100 µM

CCOP(=O)(OCC)C(Nc1ccc(F)cc1)c1ccccc1 (centres undefined)
TGI [1]: > 100 µM
TGI [2]: > 100 µM
TGI [3]: > 100 µM
TGI [4]: > 100 µM
TGI [5]: > 100 µM
TGI [6]: > 100 µM
TGI [7]: > 100 µM
TGI [8]: > 100 µM
TGI [9]: > 100 µM
TGI [10]: > 100 µM
TGI [11]: > 100 µM

O=[N+]([O-])c1cc(Cl)ccc1S(=O)(=O)N1CCCc2cc(Cl)ccc21
TGI [1]: > 100 µM
TGI [2]: > 100 µM
TGI [3]: > 100 µM
TGI [4]: > 100 µM
TGI [5]: > 100 µM
TGI [6]: > 100 µM
TGI [7]: > 100 µM
TGI [8]: > 100 µM
TGI [9]: > 100 µM
TGI [10]: > 100 µM
TGI [11]: > 100 µM

COc1cccc(-c2cc(=O)c3cc(Cl)cnc3[nH]2)c1
TGI [1]: 3.83 µM
TGI [2]: 1.57 µM
TGI [3]: > 100 µM
TGI [4]: 0.783 µM
TGI [5]: 76.3 µM
TGI [6]: > 100 µM
TGI [7]: > 100 µM
TGI [8]: 7.33 µM
TGI [9]: 74.8 µM
TGI [10]: > 77.2 µM
TGI [11]: > 62 µM

C=CCC(CNC(=O)OCc1ccccc1)OC(=O)OCc1ccccc1 (centres undefined)
TGI [1]: > 100 µM
TGI [2]: > 100 µM
TGI [3]: > 100 µM
TGI [4]: > 100 µM
TGI [5]: > 100 µM
TGI [6]: > 100 µM
TGI [7]: > 100 µM
TGI [8]: 56 µM
TGI [9]: > 100 µM
TGI [10]: > 100 µM
TGI [11]: > 100 µM

Cc1nc2c(=O)[nH]c3ccc(Cl)cc3c2o1
TGI [1]: > 100 µM
TGI [2]: > 100 µM
TGI [3]: > 100 µM
TGI [4]: > 100 µM
TGI [5]: > 100 µM
TGI [6]: > 100 µM
TGI [7]: > 100 µM
TGI [8]: > 100 µM
TGI [9]: > 100 µM
TGI [10]: > 100 µM
TGI [11]: > 100 µM
